# Measured values published in patent publication US6358961B1, “Farnesyltransferase inhibiting quinazolinones” (Jannsen-Cilag S.A., priority 1997, dated 2002).
# Columns and labels:
# [1] = tested on: NIH 3T3 cells transformed by the T24 activated human H-ras gene; assay: Ras-Transformed Cell Phenotype Reversion Assay; assay type: cell-based, mouse; details: NIH3T3; cell counts after 72 hours proliferation; test concentrations 5, 10, 50, 100 and 500 nM
# Source text: “Ras-Transformed Cell Phenotype Reversion Assay”
# Insertion of activated oncogenes such as the mutant ras gene into mouse NIH 3T3 cells converts the cells to a transformed phenotype, The cells become tumorigenic, display anchorage independent growth in semi-solid medium and lose contact inhibition. Loss of contact inhibition produces cell cultures which no longer form uniform monolayers. Rather, the cells pile up into multicellular nodules and grow to very high saturation densities in plastic tissue culture dishes. Agents such as protein famesyl transferase inhibitors which revert the ras transformed phenotype restore the uniform monolayer growth pattern to cells in culture. This reversion is easily monitored by counting the number of cells in tissue culture plates. Transformed cells will achieve higher cell numbers than cells which have reverted to an untransformed phenotype. Compounds which revert the transformed phenotype should produce antitumor effects in tumors bearing ras gene mutations.
# Compounds are screened in tissue culture in NIH 3T3 cells transformed by the T24 activated human H-ras gene. […] Then the cells are detached in 1.0 ml trypsin-EDTA cell dissociation medium and counted on a Coulter particle counter.
# Cell numbers expressed as cells per well are measured using a Coulter Particle Counter. […]
melting point [°C],Structure (SMILES),IC50 [1] [nM]
255.1,"O=c1nc(-c2cccc(Cl)c2)c2cc(C(c3ccc(Cl)cc3)n3ccnc3)ccc2[nH]1 (racemic) [Compound 1, (±)-4-(3-chlorophenyl)-6[(4-chlorophenyl)-1H-imidazol-1-ylmethyl]-2(1H)-quinazolinone]",
61.4,"O=c1nc(-c2cccc(Cl)c2)c2cc(C(c3ccc(Cl)cc3)n3ccnc3)ccc2n1Cc1ccncc1 (racemic) [Compound 3, (±)-4-(3-chlorophenyl)-6-[(4-chlorophenyl)-1H-imidazol-1-ylmethyl]-1-(4-pyridinylmethyl)-2(1H)-quinazolinone]",
177.1,"O=C1Nc2ccc(C(c3ccc(Cl)cc3)n3ccnc3)cc2C(c2cccc(Cl)c2)N1 (racemic) [Compound 8, (±)-4-(3-chlorophenyl)-6-[(4-chlorophenyl)-1H-imidazol-1-ylmethyl]-3,4-dihydro-2(1H)-quinazolinone]",
,"CN1C(=O)NC(c2cccc(Cl)c2)c2cc(C(c3ccc(Cl)cc3)c3cncn3C)ccc21 (racemic) [Compound 14, (±)-4-(3-chlorophenyl)-6-[(4-chlorophenyl)(1-methyl-1H-imidazol-5-yl)methyl]-3,4-dihydro-1-methyl-2(1H)-quinazolinone]",< 500
